Values quoted from earlier work as cited in patent US12404348B2, “Bifunctional chimeric molecules for labeling of kinases with target binding moieties and methods of use thereof” (The Brigham and Women's Hospital, Inc., priority 2021, dated 2025).
Read-outs that look alike come from different tables or passages of the source.

Assays:
[1] = target: T1, AKT1 (Homo sapiens, UniProt P31749)
[2] = target: T1, AKT1; remark: listed apart in the source
[3] = target: T2, PDK1 (Homo sapiens, UniProt O15530)
T2 sequence (O15530 1-556): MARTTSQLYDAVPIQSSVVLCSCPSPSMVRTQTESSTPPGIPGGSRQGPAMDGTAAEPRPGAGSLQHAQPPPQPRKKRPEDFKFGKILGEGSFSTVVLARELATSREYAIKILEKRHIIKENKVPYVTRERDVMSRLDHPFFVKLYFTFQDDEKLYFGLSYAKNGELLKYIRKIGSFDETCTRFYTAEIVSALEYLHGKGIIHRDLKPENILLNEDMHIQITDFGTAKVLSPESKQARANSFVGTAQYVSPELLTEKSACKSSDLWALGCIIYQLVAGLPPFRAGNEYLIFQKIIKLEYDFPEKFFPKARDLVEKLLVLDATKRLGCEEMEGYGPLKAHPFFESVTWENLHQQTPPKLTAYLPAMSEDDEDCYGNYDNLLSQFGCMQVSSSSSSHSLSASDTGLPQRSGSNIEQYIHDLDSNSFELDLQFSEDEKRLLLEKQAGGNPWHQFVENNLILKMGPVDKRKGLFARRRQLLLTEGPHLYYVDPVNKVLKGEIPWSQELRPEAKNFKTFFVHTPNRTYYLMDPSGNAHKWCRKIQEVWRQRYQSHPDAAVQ

[4] = target: T2, PDK1; settings: for Kd: read-out: ITC Kd
[5] = not given; remark: listed apart in the source

T1 sequence (P31749 whole entry): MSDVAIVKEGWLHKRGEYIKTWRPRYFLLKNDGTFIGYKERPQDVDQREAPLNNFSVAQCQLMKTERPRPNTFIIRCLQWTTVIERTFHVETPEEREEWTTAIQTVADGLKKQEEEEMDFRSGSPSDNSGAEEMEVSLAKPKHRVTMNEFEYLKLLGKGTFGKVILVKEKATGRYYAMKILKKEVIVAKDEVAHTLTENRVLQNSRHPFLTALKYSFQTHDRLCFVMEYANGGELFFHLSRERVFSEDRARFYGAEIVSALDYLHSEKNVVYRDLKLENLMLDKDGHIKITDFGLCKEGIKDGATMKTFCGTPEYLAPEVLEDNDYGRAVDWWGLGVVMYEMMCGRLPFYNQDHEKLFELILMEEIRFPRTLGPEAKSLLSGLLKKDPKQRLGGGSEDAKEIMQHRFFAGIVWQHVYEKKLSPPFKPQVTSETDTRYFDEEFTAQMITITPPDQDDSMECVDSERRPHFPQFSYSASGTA

CC(C)(C)c1cccc(-n2c(-c3cccnc3N)nc3cccnc32)c1 [Compound 3h]
IC50 [1]: > 300 µM | Akt1 ΔTm [2]: no shift

O=C(O)/C=C(\CCc1ccc(F)cc1)c1ccccc1 [Compound 4E]
AC50 [3]: n.e. | Amax [3]: n.e.

O=C(O)/C=C(/CCc1ccc(F)cc1)c1ccccc1 [Compound 4Z]
Amax [3]: 3.3 fold

O=C(O)/C=C(/CCc1ccc(Br)cc1)c1ccccc1 [Compound 5Z]
Amax [3]: 3.9 fold | ITC Ka [4]: 4.78E4 — M^-1 | ITC TΔS [4]: 13.4 kJ/mol | ITC ΔG [4]: -26.4 kJ/mol | ITC ΔH [4]: -12.8 kJ/mol | ITC ΔH/ΔG [4]: 48.6%

NCc1ccc(-n2c(-c3cccnc3)nc3cccnc32)cc1 [Compound 5b]
Akt1 ΔTm [2]: no shift

CC(=O)Nc1ccc(-n2c(-c3cccnc3N)nc3cccnc32)cc1 [Compound 5c]
Akt1 ΔTm [2]: 3.7 °C

Nc1ccc(-n2c(-c3cccnc3N)nc3cccnc32)cc1 [Compound 5d]
Akt1 ΔTm [2]: 4.1 °C

O=C(O)/C=C(/CCc1ccc(C(F)(F)F)cc1)c1ccccc1 [Compound 6Z]
Amax [3]: 4.4 fold | AC50 ([3]; read-out: AC50): 7.1 µM | ITC Ka [4]: 9.66E4 — M^-1 | ITC TΔS [4]: 20 kJ/mol | ITC ΔG [4]: -28.2 kJ/mol | ITC ΔH [4]: -8.12 kJ/mol | ITC ΔH/ΔG [4]: 28.8% | Kd [4]: 10.4 µM

O=C(O)/C=C(/CCc1ccc(Cl)c(Cl)c1)c1ccccc1 [Compound 7Z]
Amax [3]: 2.4 fold | AC50 ([3]; read-out: AC50): 2.8 µM | ITC Ka [4]: 7.18E4 — M^-1 | ITC TΔS [4]: 11.7 kJ/mol | ITC ΔG [4]: -27.4 kJ/mol | ITC ΔH [4]: -15.5 kJ/mol | ITC ΔH/ΔG [4]: 56.6% | Kd [4]: 13.9 µM

O=C(O)/C=C(\CCc1ccc(Cl)cc1Cl)c1ccccc1 [Compound 8E]
AC50 [3]: n.e. | Amax [3]: n.e.

O=C(O)/C=C(/CCc1ccc(Cl)cc1Cl)c1ccccc1 [Compound 8Z]
Amax [3]: 2.1 fold | AC50 ([3]; read-out: AC50): 4.7 µM | ITC Ka [4]: 1.71E5 — M^-1 | ITC TΔS [4]: 20.6 kJ/mol | ITC ΔG [4]: -29.6 kJ/mol | ITC ΔH [4]: -8.7 kJ/mol | ITC ΔH/ΔG [4]: 29.5%

Nc1ncccc1-c1nc2cccnc2n1-c1cccc(CNC(=O)c2ccccc2)c1 [Compound 8g]
Akt1 ΔTm [2]: no shift

Nc1ncccc1-c1nc2cccnc2n1-c1ccc(CNCc2ccccc2)cc1 [Compound 8h]
Akt1 ΔTm [2]: 4.9 °C

CCc1ccc(CC/C(=C\C(=O)O)c2ccccc2)cc1 [Compound 10E]
AC50 [3]: n.e. | Amax [3]: n.e.

CCc1ccc(CC/C(=C/C(=O)O)c2ccccc2)cc1 [Compound 10Z]
Amax [3]: 1.4 fold | AC50 ([3]; read-out: AC50): > 30 µM

O=C(O)/C=C(\CCc1ccc(-c2ccccc2)cc1)c1ccccc1 [Compound 11E]
Amax [3]: n.e.

O=C(O)/C=C(/CCc1ccc(-c2ccccc2)cc1)c1ccccc1 [Compound 11Z]
Amax [3]: 3.2 fold

O=C(O)/C=C(/CCc1ccc2ccccc2c1)c1ccccc1 [Compound 12Z]
Amax [3]: 3.5 fold | ITC Ka [4]: 7.26E4 — M^-1 | ITC TΔS [4]: 8.2 kJ/mol | ITC ΔG [4]: -27.9 kJ/mol | ITC ΔH [4]: -19.1 kJ/mol | ITC ΔH/ΔG [4]: 68.3%

O=C(O)/C=C(/CCc1c[nH]c2ccccc12)c1ccccc1 [Compound 13Z]
Amax [3]: 3.1 fold | ITC Ka [4]: 9.63E4 — M^-1 | ITC TΔS [4]: 10.9 kJ/mol | ITC ΔG [4]: -28.2 kJ/mol | ITC ΔH [4]: -17.1 kJ/mol | ITC ΔH/ΔG [4]: 60.8%

O=C(NOC[C@@H](O)CO)c1ccc(F)c(F)c1Nc1ccc(I)cc1F [Compound 35]
Sol (pH 6.5): 255, μg/mL

CC(=O)NC1=NN(c2ccc(Cl)c(Cl)c2)CC1C (stereo not drawn) [Compound 45]
In Vivo Plasma Concentration ([5]; 40 min): 5540 ± 233 ng/mL | In Vivo Plasma Concentration ([5]; 180 min): 2540 ± 143 ng/mL

O=C(NOC[C@H](O)CO)c1ccc(F)c(F)c1Nc1ccc(I)cc1F [Mirdametinib]
Sol (pH 6.5): 190 μg/mL
